Data as given in PMC3933693, “Novel Inhibitors of Mitochondrial sn-Glycerol 3-phosphate Dehydrogenase” (PLoS ONE, 2014).

How the values were obtained:
mGPDH = molecular target: T1, mGPDH (Rattus norvegicus, UniProt P35571); test: Superoxide/H2O2 production by mGPDH in isolated skeletal muscle mitochondria (Amplex UltraRed); format: biochemical; conditions: for mGPDH (% change from DMSO): primary screen, ∼2.5 µM, average of duplicates, 16.7 mM glycerol phosphate, no added calcium; for IC50: Fig. 4 structure/activity microplate assay, 0.08–80 µM, estimated, means of two replicates, read-out: mGPDH H2O2 production IC50; for inhibition at 80 µM: read-out: mGPDH H2O2 production (% change at 80 μM)
T1 construct: Activity of mGPDH in frozen-thawed skeletal muscle mitochondria was measured; from tissue; host or cells: skeletal muscle mitochondria
T1 sequence (P35571 43-727): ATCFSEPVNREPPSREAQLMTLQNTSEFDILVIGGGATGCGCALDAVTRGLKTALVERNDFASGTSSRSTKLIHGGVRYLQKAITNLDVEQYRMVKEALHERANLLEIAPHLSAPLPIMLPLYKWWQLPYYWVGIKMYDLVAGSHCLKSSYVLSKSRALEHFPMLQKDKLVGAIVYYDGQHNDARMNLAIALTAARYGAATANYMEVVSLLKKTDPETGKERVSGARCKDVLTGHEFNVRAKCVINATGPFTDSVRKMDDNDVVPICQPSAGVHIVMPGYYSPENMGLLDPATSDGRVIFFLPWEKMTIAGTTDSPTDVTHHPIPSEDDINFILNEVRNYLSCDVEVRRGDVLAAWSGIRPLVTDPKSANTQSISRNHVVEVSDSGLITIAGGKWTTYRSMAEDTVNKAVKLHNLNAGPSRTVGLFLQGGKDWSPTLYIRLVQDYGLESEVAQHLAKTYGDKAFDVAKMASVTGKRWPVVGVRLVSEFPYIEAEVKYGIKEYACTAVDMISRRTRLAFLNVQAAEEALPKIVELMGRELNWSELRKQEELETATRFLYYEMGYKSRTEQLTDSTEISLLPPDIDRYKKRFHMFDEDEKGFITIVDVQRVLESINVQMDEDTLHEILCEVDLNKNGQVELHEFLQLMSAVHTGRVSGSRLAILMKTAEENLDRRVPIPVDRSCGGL

[1] = test system: flavin mononucleotide site of complex I (site IF) plus matrix NAD-linked dehydrogenases (site IF/DH); test: Site-specific H2O2 production from site IF/DH in skeletal muscle mitochondria; format: biochemical, rat; conditions: primary screen, ∼2.5 µM, average of duplicates
Experimental: (§1) Superoxide was measured as H2O2 after dismutation by endogenous or exogenous superoxide dismutase. Rates of total superoxide/H2O2 production were measured fluorimetrically using Amplex UltraRed in the presence of exogenous superoxide dismutase and horseradish peroxidase in a Varian Cary Eclipse fluorimeter as previously described. Rates of production from specific sites were determined as previously described using the following eight conditions: flavin mononucleotide site of complex I (site IF) plus matrix NAD-linked dehydrogenases (collectively "site IF/DH") with 5 mM glutamate, 5 mM malate, and 4 µM rotenone; ubiquinone-binding site of complex I (site IQ) with either 0.5 or 5 mM succinate; flavin site of complex II (site IIF) with either 15 µM palmitoylcarnitine, 2.5 µM antimycin A, and 2 µM myxothiazol or 0.5 mM succinate, 4 µM rotenone, 2.5 µM antimycin A, and 2 µM myxothiazol, [31]; mGPDH with 1.7 mM glycerol phosphate, 4 µM rotenone, 2.5 µM antimycin A, 2 µM myxothiazol, 1 mM malonate, and 250 nM free calcium; outer ubiquinone-binding site of complex III (site IIIQo) with either 0.5 or 5 mM succinate, 4 µM rotenone and 2.5 µM antimycin A [32]. Candidate small-molecule inhibitors were added prior to the start of measurements and H2O2 calibration curves were performed in the presence of tested compounds.
(§2) 3,200 compounds were tested initially at 2.5 µM (0.025% DMSO final) in duplicate on different plates against a panel of five distinct assays of site-specific superoxide/H2O2 production as described in the previous section with minor changes. […] Endpoint fluorescence was measured on a Perkin Elmer Victor V3 fluorescent plate reader. The fluorescence intensity of each well was normalized as % change from the average of eight DMSO controls on the same plate. Duplicate wells of each of four modulators of mitochondrial metabolism known to inhibit specific sites of superoxide/H2O2 production were included on each plate as positive controls and the resulting fluorescence levels set as −100% change from DMSO controls. Known inhibitors included 20 mM aspartate (for site IF/DH), 1 µM FCCP (for site IQ), 10 mM malonate (for site IIF), and 2 µM myxothiazol (for site IIIQo). The background fluorescence of the FCCP wells in the site IQ assay was used to normalize mGPDH plates run in parallel. To minimize position-dependent effects across each assay plate, Tukey’s two-way median polish was applied to fluorescence values after initial normalization, [36]. Tukey’s polish is an iterative subtraction of the median row and column values from each well’s given row or column. The procedure is repeated until sequential medians for each row and column are zero and positional gradients in fluorescence are eliminated.

[2] = test system: ubiquinone-binding site of complex I (site IQ); test: Site-specific H2O2 production from site IQ in skeletal muscle mitochondria; format: biochemical, rat; conditions: 5 mM succinate; for IQ (% change from DMSO): primary screen, ∼2.5 µM, average of duplicates;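 on all read-outs here: H2O2 from superoxide detected by Amplex UltraRed fluorescence with added superoxide dismutase and horseradish peroxidase, endpoint read 30–40 min after substrate addition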
Experimental: Superoxide was measured as H2O2 after dismutation by endogenous or exogenous superoxide dismutase. Rates of total superoxide/H2O2 production were measured fluorimetrically using Amplex UltraRed in the presence of exogenous superoxide dismutase and horseradish peroxidase in a Varian Cary Eclipse fluorimeter as previously described [27]. Rates of production from specific sites were determined as previously described using the following eight conditions: flavin mononucleotide site of complex I (site IF) plus matrix NAD-linked dehydrogenases (collectively "site IF/DH") with 5 mM glutamate, 5 mM malate, and 4 µM rotenone [28]; ubiquinone-binding site of complex I (site IQ) with either 0.5 or 5 mM succinate [29]; flavin site of complex II (site IIF) with either 15 µM palmitoylcarnitine, 2.5 µM antimycin A, and 2 µM myxothiazol or 0.5 mM succinate, 4 µM rotenone, 2.5 µM antimycin A, and 2 µM myxothiazol [30], [31]; mGPDH with 1.7 mM glycerol phosphate, 4 µM rotenone, 2.5 µM antimycin A, 2 µM myxothiazol, 1 mM malonate, and 250 nM free calcium; outer ubiquinone-binding site of complex III (site IIIQo) with either 0.5 or 5 mM succinate, 4 µM rotenone and 2.5 µM antimycin A [32]. Candidate small-molecule inhibitors were added prior to the start of measurements and H2O2 calibration curves were performed in the presence of tested compounds.
3,200 compounds were tested initially at 2.5 µM (0.025% DMSO final) in duplicate on different plates against a panel of five distinct assays of site-specific superoxide/H2O2 production as described in the previous section with minor changes. […] Endpoint fluorescence was measured on a Perkin Elmer Victor V3 fluorescent plate reader. The fluorescence intensity of each well was normalized as % change from the average of eight DMSO controls on the same plate. Duplicate wells of each of four modulators of mitochondrial metabolism known to inhibit specific sites of superoxide/H2O2 production were included on each plate as positive controls and the resulting fluorescence levels set as −100% change from DMSO controls. Known inhibitors included 20 mM aspartate (for site IF/DH), 1 µM FCCP (for site IQ), 10 mM malonate (for site IIF), and 2 µM myxothiazol (for site IIIQo). The background fluorescence of the FCCP wells in the site IQ assay was used to normalize mGPDH plates run in parallel. To minimize position-dependent effects across each assay plate, Tukey’s two-way median polish was applied to fluorescence values after initial normalization [35], [36]. Tukey’s polish is an iterative subtraction of the median row and column values from each well’s given row or column. The procedure is repeated until sequential medians for each row and column are zero and positional gradients in fluorescence are eliminated.
These 20 compounds were tested in duplicate at 0.08–80 µM (0.1% DMSO final) in microplate format for effects on site-specific H2O2 production as described above. […] Plates were incubated in the dark at room temperature for 30–40 min (H2O2) or 10–15 min (ΔΨm) after the addition of substrate, and endpoint fluorescence was measured on the Victor plate reader. Endpoints were chosen for the H2O2 assays to provide good signal-to-noise ratios and linear rates of change without the indicator dye limiting the reaction.

[3] = molecular target: T2, flavin site of complex II (site IIF) (Rattus norvegicus, UniProt Q920L2); test: Site-specific H2O2 production from site IIF in skeletal muscle mitochondria; format: biochemical; conditions: primary screen, ∼2.5 µM, average of duplicates; palmitoylcarnitine
T2 construct: from tissue; host or cells: skeletal muscle mitochondria
T2 sequence (Q920L2 35-656): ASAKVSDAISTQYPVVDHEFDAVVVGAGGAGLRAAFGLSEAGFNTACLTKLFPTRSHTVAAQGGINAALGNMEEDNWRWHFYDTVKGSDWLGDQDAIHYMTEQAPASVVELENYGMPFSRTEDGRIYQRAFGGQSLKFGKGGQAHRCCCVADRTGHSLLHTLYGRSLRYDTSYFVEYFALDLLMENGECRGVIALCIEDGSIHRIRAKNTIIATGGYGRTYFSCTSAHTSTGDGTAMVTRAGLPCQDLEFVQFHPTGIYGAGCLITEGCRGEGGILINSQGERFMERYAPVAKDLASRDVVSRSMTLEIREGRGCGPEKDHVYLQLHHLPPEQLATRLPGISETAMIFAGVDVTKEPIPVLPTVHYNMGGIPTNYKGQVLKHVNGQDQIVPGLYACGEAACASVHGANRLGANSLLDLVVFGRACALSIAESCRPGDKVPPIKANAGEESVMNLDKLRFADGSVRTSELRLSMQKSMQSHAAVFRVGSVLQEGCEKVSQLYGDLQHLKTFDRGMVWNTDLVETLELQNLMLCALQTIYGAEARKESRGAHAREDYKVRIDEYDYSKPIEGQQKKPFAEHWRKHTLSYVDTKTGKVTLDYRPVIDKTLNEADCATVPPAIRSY
T2 sequence (P21913 31-282 partner): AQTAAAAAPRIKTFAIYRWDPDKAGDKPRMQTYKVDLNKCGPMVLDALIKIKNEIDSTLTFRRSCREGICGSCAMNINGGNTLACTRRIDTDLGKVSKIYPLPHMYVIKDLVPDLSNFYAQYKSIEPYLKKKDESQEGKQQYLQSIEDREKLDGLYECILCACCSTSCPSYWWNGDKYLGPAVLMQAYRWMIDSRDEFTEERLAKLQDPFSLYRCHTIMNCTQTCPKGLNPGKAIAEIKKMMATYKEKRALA
T2 sequence (Q641Z9 30-169 partner limits assumed): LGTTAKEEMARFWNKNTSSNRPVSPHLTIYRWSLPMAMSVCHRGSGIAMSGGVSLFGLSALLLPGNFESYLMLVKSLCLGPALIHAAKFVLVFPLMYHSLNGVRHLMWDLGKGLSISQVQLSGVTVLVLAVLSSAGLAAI
T2 sequence (Q6PCT8 57-159 partner): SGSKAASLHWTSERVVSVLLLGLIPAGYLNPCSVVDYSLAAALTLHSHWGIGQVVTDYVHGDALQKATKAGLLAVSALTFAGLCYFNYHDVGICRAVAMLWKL
Experimental: as §1, §2

[4] = molecular target: T3, outer ubiquinone-binding site of complex III (site IIIQo) (Rattus norvegicus, UniProt P00159+P20788); test: Site-specific H2O2 production from site IIIQo in skeletal muscle mitochondria; format: biochemical; conditions: primary screen, ∼2.5 µM, average of duplicates; 5 mM succinate
T3 construct: from tissue; host or cells: skeletal muscle mitochondria
Experimental: as §1, §2

[5] = test system: skeletal muscle mitochondria; test: Mitochondrial membrane potential (ΔΨm, TMRM) powered by glutamate plus malate; format: biochemical, rat; conditions: for ΔΨm (% change from DMSO): primary screen, ∼2.5 µM, average of duplicates, glutamate and malate; for ΔΨm with Glu + Mal + Nig (% change at 80 μM) / ΔΨm with Glu + Mal (% change at 80 μM): 5 mM glutamate, 5 mM malate; for ΔΨm with Glu + Mal + Nig (% change at 80 μM): with nigericin; for ΔΨm with Glu + Mal (% change at 80 μM): without nigericin
Experimental: (§3) Mitochondrial membrane potential (ΔΨm) was estimated fluorimetrically as described previously [33] on the Varian fluorimeter, except the potentiometric dye TMRM was used in quench-mode in place of safranine O [34]. […] The effect of putative small-molecule inhibitors was normalized as the % change in fluorescence between vehicle treatment and complete depolarization by the uncoupler carbonyl cyanide-4-(trifluoromethoxy)phenylhydrazone (FCCP, 2 µM) added at the end of each run. When indicated, the K^+/H^+ exchanger nigericin (80 ng ⋅ ml^−1) was added to collapse the pH gradient across the mitochondrial inner membrane (ΔpH) and maximize ΔΨm.
(§4) All assays were performed with stirring at 37°C.
(§5) Additionally, four microplate assays for ΔΨm were run in parallel to the H2O2 assays. These assays were as described under “Measurement of mitochondrial H2O2 production and membrane potential” except that each substrate condition was assayed in a separate microplate. […] Plates were incubated in the dark at room temperature for 30–40 min (H2O2) or 10–15 min (ΔΨm) after the addition of substrate, and endpoint fluorescence was measured on the Victor plate reader. […] Endpoints for the ΔΨm assays were determined in pilot experiments as the times for TMRM accumulation to reach a steady state. At room temperature, this was typically ∼ 5 min and remained stable for at least 30 min. Endpoint fluorescence values were normalized as described in the previous section with wells containing FCCP serving as positive controls for the ΔΨm assays.

[6] = test system: skeletal muscle mitochondria; test: Mitochondrial membrane potential (ΔΨm, TMRM) powered by glycerol phosphate; format: biochemical, rat; conditions: 80 μM; 16.7 mM glycerol phosphate, 4 µM rotenone, nigericin
Experimental: as §3, §4, §5

Structure (SMILES) | mGPDH (% change from DMSO) (mGPDH) [%] | IF/DH (% change from DMSO) [1] [%] | IQ (% change from DMSO) [2] [%] | IIF (% change from DMSO) [3] [%] | IIIQo (% change from DMSO) [4] [%] | ΔΨm (% change from DMSO) [5] [%] | IC50 (mGPDH) [µM] | inhibition at 80 µM (mGPDH) [%] | IQ H2O2 production with 5 mM Suc (% change at 80 μM) [2] [%] | ΔΨm with Glu + Mal + Nig (% change at 80 μM) [5] [%] | ΔΨm with Glu + Mal (% change at 80 μM) [5] [%] | ΔΨm with GP + Nig (% change at 80 μM) [6] [%] | lowering of potency versus mGPDH ROS production relative to iGP-1 (mGPDH; ortho- to para- positioning)
O=C(Nc1ccc(O)cc1)c1ccco1 [compound 5471987] | -26.4 | -52.3 | -9.9 | -28.0 | -8.4 | 0.0125 |  |  |  |  |  |  | 
Cn1c(/C=C/c2ccc(Cl)cc2)nc2ccccc21 [compound 5663561] | -12.9 | -9.1 | -3.9 | -11.9 | -4.7 | 0.0494 |  |  |  |  |  |  | 
Nc1nc(-c2ccc(Cl)c(Cl)c2)cs1 [compound 5690819] | -10.3 | -0.9 | -3.1 | -7.3 | -4.6 | 0.636 |  |  |  |  |  |  | 
O=C(O)CCC(=O)Nc1ccc(-c2nc3ccccc3s2)cc1 [iGP-3] |  |  |  |  |  |  | 15 | 50 | -69 | 20 | 148 | -26 | 
Cc1ccc2[nH]c(-c3ccc(NC(=O)CCC(=O)O)cc3)nc2c1 [iGP-4] |  |  |  |  |  |  | 5 | 69 | -20 | 11 | 49 | -35 | 
O=C(O)CCC(=O)Nc1ccc(-c2nc3cc(C(=O)c4ccccc4)ccc3[nH]2)cc1 [iGP-6] |  |  |  |  |  |  | 3 | 55 | -28 | 17 | 93 | -59 | 
O=C(O)CCC(=O)Nc1ccc(-c2nc3cc(NC(=O)CCC(=O)O)ccc3[nH]2)cc1 [iGP-7] |  |  |  |  |  |  |  | 21 | 3 | 2 | 25 | 4 | 
O=C(O)CCC(=O)Nc1cccc(-c2nc3ccccc3[nH]2)c1 [iGP-8] |  |  |  |  |  |  | 50 | 44 | -14 | 1 | 3 | -7 | more than 5 fold
CCCC(=O)Nc1ccc(-c2nc3cc4ccccc4cc3[nH]2)cc1 [iGP-9] |  |  |  |  |  |  |  | 2 | -1 | 5 | 26 | 5 | 
c1ccc2[nH]c(-c3ccc(-c4nc5ccccc5[nH]4)cc3)nc2c1 [iGP-10] |  |  |  |  |  |  |  | 0 | -77 | -78 | -58 | -78 | 
C=C(C)C(=O)Nc1ccc(-c2nc3ccccc3[nH]2)cc1 [iGP-11] |  |  |  |  |  |  |  | 5 | -54 | -1 | 54 | 1 | 
CC(=O)Nc1ccc(-c2nc3ccccc3[nH]2)cc1 [iGP-12] |  |  |  |  |  |  |  | 28 | -21 | 2 | 10 | 2 | 
O=C(Nc1ccc(-c2nc3ccccc3[nH]2)cc1)c1ccco1 [iGP-13] |  |  |  |  |  |  | 80 | 37 | -82 | 10 | 23 | 13 | 
CCOc1ccc(C(=O)Nc2ccc(-c3nc4ccccc4[nH]3)cc2)cc1 [iGP-15] |  |  |  |  |  |  |  | -11 | -15 | -42 | 10 | -25 | 
O=C(Nc1ccc(-c2nc3ccccc3[nH]2)cc1)C1CC1 [iGP-16] |  |  |  |  |  |  |  | 7 | -24 | 1 | 4 | 2 | 
CCCCCCNC(=O)CCC(=O)O [iGP-17] |  |  |  |  |  |  |  | -6 | -1 | -1 | -1 | 0 | 
O=C(O)CCC(=O)Nc1ccc(Cl)cc1 [iGP-18] |  |  |  |  |  |  |  | -2 | 6 | -3 | -9 | -1 | 
